Row | Compound | melting point [°C]
1 | O=C1CC(c2ccccc2)CN1C(=O)c1ccc(Cl)cc1 (stereo not given) | 157 to 158
2 | CCOc1cc(OCC)c2c(C)c(CCO)c(=O)oc2c1 | 117 to 119
3 | FC(F)(F)c1cccc(-c2ccn3nccc3n2)c1 | 117 to 118
4 | CN(C)C(=O)c1cnn(-c2ccccc2)c1Br | 79 to 81
5 | O=C(O)c1cccc2c(Br)c(O)ccc12 | > 225
6 | Cc1csc2nc(-c3ccc(C(=O)O)cc3)nc(NCc3ccccc3)c12 | 270
7 | OC(c1ccccc1)(c1ncc[nH]1)c1ccccc1Cl (stereo not given) | 186 to 188
8 | COc1ccc(CCNS(=O)(=O)c2ccc(N)cc2)cc1 | 144 to 146
9 | O=C(O)CCCCCCCNC(=O)c1ccccc1NC(=O)c1ccccc1O | 124 to 125
10 | CCc1noc(C2=C(C)NC(C)=C(C(=O)OCCOC)C2c2cc(Cl)cc(Cl)c2)n1 (stereo not given) | 201 to 202
11 | CC(=O)Oc1c(Cl)nc(-c2ccccc2)nc1Cl | 145 to 147
12 | CN(C)c1ccc(C(=O)c2ccncc2)cc1 | 122 to 124
13 | Nc1ccccc1C(=O)NCC1CCN(C(c2ccccc2)c2ccccc2)CC1 | 153 to 154
14 | O=c1c2c(Cc3cccs3)n[nH]c2c2cccnc2n1-c1ccccc1 | 282 to 284
15 | CCOCn1c(Sc2ccc(Cl)c(Cl)c2)c(Br)c(C#N)c1-c1ccc(Cl)cc1 | 105 to 107
16 | N=C(N)c1ccc(N2CCN(c3ccc(SCC(=O)O)cc3)C2=O)cc1 | > 275
17 | COc1ccc(C2(O)CC=C(c3ccncc3)N(C)C2=O)cc1 (stereo not given) | 224 to 226
18 | CC(OC(=O)OCC(=O)N(C)C)OC(=C1C(=O)N(C(N)=O)c2cc(Cl)c(F)cc21)c1cccs1 (stereo not given) | 194 to 196
19 | O=C(O)COc1ccc(SCc2ccc(OCc3ccc(F)c(C(F)(F)F)c3)cc2)c2c1CCC2 | 116 to 117
20 | O=C(c1ccc([N+](=O)[O-])cc1)N1CCCCc2ncccc21 | 231 to 233
21 | CCOC(=O)CCN(Cc1ccc(OC)c(OC)c1)C(=O)CN(C)C(=O)Cc1ccc(NC(=O)Nc2ccccc2C)c(OC)c1 | 97 to 105
22 | COc1cc(CO)ccc1OCc1nc(-c2cccc([N+](=O)[O-])c2)oc1C | 134 to 135
23 | C[Si](C)(C)C#Cc1cnn2c(C(F)(F)F)cc(-c3ccc(C(F)(F)F)cc3)nc12 | 136
24 | CC(C)(C)[Si](C)(C)Oc1ccc(NC(=O)CCCl)cc1 | 126
25 | CC(C)(C)OC(=O)N1C2C=CC(C2)N1CC(O)C(Cc1ccccc1)NC(=O)OCc1ccccc1 (mixture of isomers) | 111 to 113

Row | Compound | melting point [°C]
26 | O=C(Cc1cc(OC(=O)c2ccccc2)no1)OC(c1ccccc1)c1ccccc1 | 95 to 96
27 | CON=Cc1c(C(=O)OC)[nH]c2c(C)ccc(C)c12 | 107 to 108
28 | CCOCc1nc2c(N)nc3cc(OCCCN4CCCC4=O)ccc3c2n1CCCCNC(=O)NC(C)C | 98 to 101
29 | Cc1ccc(-c2[nH]c(-c3cccnc3)nc2C(=O)O)cc1 | 140 to 142
30 | O=C1c2ccccc2CCN1O | 95 to 96
31 | O=C1NC2(C(=O)CCl)C=CC1C2 (stereo not given) | 86 to 88
32 | CC(C)C(=O)Nc1ccc(N)c(C(F)(F)F)c1 | 114 to 116
33 | CCCc1c(OCc2ccc(C(=O)NC(C)CCCc3cccnc3)cc2)ccc(C(C)=O)c1O (stereo not given) | 117 to 120
34 | CC1CC(=O)NN=C1c1ccc(NC(=O)C2CC2)cc1 (stereo not given) | 267 to 268
35 | COC(=O)c1ccc(N2CCN(C)CC2)cc1 | 117 to 119
36 | O=C(NCc1ccccc1)C1Cc2ccccc2N1S(=O)(=O)c1ccc(-c2ccc(F)cc2)cc1 (stereo not given) | 65
37 | Cc1nc(-c2ccc(O)cc2)oc1C | 202 to 203
38 | CCNc1cc(NS(=O)(=O)c2ccc(N)cc2)nc(NC(C)C)n1 | 266 to 267
39 | O=C(N[C@H]1CCN(CCc2ccc(F)cc2)C1)n1c2ccccc2c2ccccc21 | 107 to 108
40 | NC1=NN(c2ccc(OCc3ccccc3)cc2)CC1 | 148 to 149
41 | CC1(C)NC(=O)N(CC(CS(=O)(=O)C2(C(F)(F)F)C=CC(c3ccccc3)=CC2)N(O)C=O)C1=O (stereo not given) | 206
42 | C=CCN1CCc2ccc(C(=O)CCC(=O)N3CCC(c4ccc(Cl)cc4)CC3)cc2CC1 | 136 to 137
43 | O=[N+]([O-])c1cccc2nc[nH]c12 | 242 to 245
44 | O=C1CC(c2cccc(-n3ccnc3)c2)=Nc2ccc(C#Cc3ccccc3)cc2N1 | 193 to 196
45 | CCC(CCCNC(=O)Nc1cccnc1)NC(=O)Nc1cccnc1 (stereo not given) | 218 to 219
46 | Cn1cncc1C(O)(c1ccc(Cl)cc1)c1ccc2c(c1)c(CCc1cccc(Cl)c1)cc(=O)n2C (stereo not given) | 190
47 | CCOC(=O)c1c(N)c2cccnc2n(C)c1=O | 203 to 206
48 | COc1cc2cc(c1Cl)N(C)C(=O)CC(O)C1(C)OC1C(C)C1CC(O)(NC(=O)O1)C(OC)C=CC=C(C)C2 (stereo not given) | 174
49 | S=C(Nc1ccc(Cl)cc1)Nc1ncccc1OCc1c(Cl)cccc1Cl | 179 to 180
50 | CC(C)(C)c1ccc(C(O)CCCN2CCC(OC(c3ccccc3)c3ccccc3)CC2)cc1 (stereo not given) | 129 to 131

Row | Compound | melting point [°C]
51 | CCOC(=O)c1cccc2nc(OCC)n(Cc3ccc(-c4ccccc4-c4nnn[nH]4)cc3)c12 | 158 to 159
52 | Cn1ncc(CCC(=O)O)c1-c1ccc(Cl)cc1 | 138 to 140
53 | CCOC(=O)C1=C(N)N=C(OCC)C(C(=O)OCC)C1c1cc([N+](=O)[O-])ccc1Cl (stereo not given) | 136 to 137
54 | N#Cc1ccc2oc(CCc3ccc(C(=O)Nc4cnccn4)cc3)cc2c1 | 183 to 185
55 | COc1ccc(-c2cc(C(N)=O)c(=O)n(CC3CCCC3)n2)cc1 | 182 to 183
56 | CC(C)(C)OC(=O)c1ccc(OCCNC(=O)C2Cc3ccccc3N2S(=O)(=O)c2ccc(-c3ccc(F)cc3OC(F)F)cc2)cc1 (stereo not given) | 60 to 70
57 | Clc1ccc(-c2cn([C@H]3CN4CCC3CC4)nn2)cc1 | 144
58 | CCOC(=O)c1ccc2[nH]cc(C3=CCN(C)CC3)c2c1 | 249
59 | COc1cc(O)c2c(c1)CC(C(=O)Nc1ccc(CC3SC(=O)NC3=O)cc1)SCC2=O (stereo not given) | 131 to 134
60 | COC(=O)CC[C@H](NC(=O)c1ccc(CCC2CNc3nc(NC(=O)C(C)(C)C)nc(O)c3C2)s1)C(=O)OC (stereo not given in full) | 152 to 160
61 | N#Cc1ncn2c(C(F)(F)F)cc(-c3ccc(OCC(F)(F)F)c(C(F)(F)F)c3)nc12 | 189
62 | CCn1ncc2c1ncc1c(OC(C)C)nc3cc(C)nn3c12 | 129 to 130
63 | Cc1nn(-c2ccccn2)c(=O)cc1-c1ccc(O)cc1 | 252 to 254
64 | COC(=O)c1ccc2c(Br)n[nH]c2c1 | 186 to 189
65 | CCOc1nn(Cc2ccc(OCc3ccc(-c4ccccc4)nc3)cc2)cc1CCC(=O)O | 140 to 141
66 | Cc1nc2ccccc2n1CCOCCCl | 96 to 98
67 | CNC(=O)C(C#N)C(=O)C1CCC1 (stereo not given) | 81 to 83
68 | NN=C1c2ccccc2-c2ccc(F)cc21 | 161 to 165
69 | O=C(c1cccnc1)c1ccc(Cl)c([N+](=O)[O-])c1 | 112 to 113
70 | O=Cc1cc2sccc2c2ccccc12 | 101 to 102
71 | CCOC(=O)C#CC(OC(N)=O)c1ccccc1 (stereo not given) | 82
72 | N#CC(=Cc1ccc([N+](=O)[O-])cc1)c1ccc([N+](=O)[O-])cc1 | 216 to 218
73 | COc1nc2cccc(C=O)c2nc1OC | 137 to 140
74 | CCCCCCCCCCCCc1ccccc1C(SCCC(=O)O)C(=O)O (stereo not given) | 44 to 46
75 | O=C(O)CC1CCCN(C(=O)c2ccc(N3CCCC3)cc2Cl)c2ccccc21 (stereo not given) | 191 to 192

Row | Compound | melting point [°C]
76 | CCOC(=O)Cc1nsc(NC(=O)c2ccccc2)n1 | 119 to 120
77 | CC1=Nc2ccccc2CN1C1CCC(=O)NC1=O (stereo not given) | 78 to 85
78 | CNC(=NCCSCc1cc(OC)ccn1)NC#N | 121 to 122
79 | Nc1ncnc2c1ncn2COCCN1C(=O)c2ccccc2C1=O | 256 to 258
80 | COc1nc(CO)c(CO)n1C | 110 to 119
81 | CON(O)C(=O)c1ccccc1[N+](=O)[O-] | 104
82 | COc1cccc2c1C(=O)c1c(OC)cc(CBr)cc1C2=O | 176 to 178
83 | O=c1ccc(Cc2cccnc2)c[nH]1 | 142 to 144
84 | CCN(CC)c1c(Cl)cc(-n2c(C(F)(F)F)nn(C)c2=S)cc1Cl | 128 to 130
85 | COc1ccc2nc(-c3ccc(C)c(C)c3)n(-c3ccccc3)c2c1 | 251
86 | CCCCCC(=O)OCCCOc1ccc(Nc2ccccc2)cc1 | 50 to 51
87 | CC(=O)N(C#N)C1(c2ccc(OCc3ccc4ccccc4n3)cc2)CCCCC1 | 90
88 | COCc1ncnc(O)c1OC | 141 to 143
89 | Cc1oc(-c2ccco2)nc1COc1ccc(CO)cc1Cl | 143 to 144
90 | COc1ccccc1CSc1nc2cnccc2[nH]1 | 193 to 195
91 | Cc1cc(C)cc(Sc2c(C(C)C)c(=O)[nH]c(=O)n2CC2=CCC(CO)C2)c1 (stereo not given) | 147 to 148
92 | CCN(CC)Cc1ccnc(F)c1C=NO | 97 to 99
93 | COC(=O)C1=C(C)Nc2nccn2C1c1cccc([N+](=O)[O-])c1 (stereo not given) | 263 to 264
94 | SCC1SC(CS)SC(CS)S1 (stereo not given) | 42 to 46
95 | CC(C)(C)C1(Cl)Cc2cc(OCC(=O)O)c(Cl)c(Cl)c2C1=O (stereo not given) | 184 to 186
96 | Cc1nc2cc(C(=O)NC(C)C)c(NC(=O)c3cc(C(F)(F)F)nn3-c3ncccc3Cl)c(Cl)c2nc1C | 243 to 244
97 | C=CCN1CC(=O)N(c2cc(C(=O)NCCCOc3ccc(C(C)(C)CC)cc3C(C)(C)CC)c(O)c3ccccc23)C1=S | 204 to 205
98 | N#Cc1ccc(-c2cncc(OC3SCC(O)C(O)C3O)c2)cc1F (stereo not given) | 214
99 | O=C(NCc1c(Cl)cccc1Oc1ccccc1)C1CCc2[nH]cnc2C1 (stereo not given) | 197 to 199
100 | Cc1cn(C2CC(O)C(COC(c3ccccc3)(c3ccccc3)c3ccccc3)O2)c(=O)[nH]c1=O (stereo not given) | 107 to 110
